Assay [1] has as its target T1, hNCC(C472F) (Homo sapiens, UniProt P55017, C472F).
T1 construct: expressed in transfected cells
T1 sequence (P55017 1-1021 C472F): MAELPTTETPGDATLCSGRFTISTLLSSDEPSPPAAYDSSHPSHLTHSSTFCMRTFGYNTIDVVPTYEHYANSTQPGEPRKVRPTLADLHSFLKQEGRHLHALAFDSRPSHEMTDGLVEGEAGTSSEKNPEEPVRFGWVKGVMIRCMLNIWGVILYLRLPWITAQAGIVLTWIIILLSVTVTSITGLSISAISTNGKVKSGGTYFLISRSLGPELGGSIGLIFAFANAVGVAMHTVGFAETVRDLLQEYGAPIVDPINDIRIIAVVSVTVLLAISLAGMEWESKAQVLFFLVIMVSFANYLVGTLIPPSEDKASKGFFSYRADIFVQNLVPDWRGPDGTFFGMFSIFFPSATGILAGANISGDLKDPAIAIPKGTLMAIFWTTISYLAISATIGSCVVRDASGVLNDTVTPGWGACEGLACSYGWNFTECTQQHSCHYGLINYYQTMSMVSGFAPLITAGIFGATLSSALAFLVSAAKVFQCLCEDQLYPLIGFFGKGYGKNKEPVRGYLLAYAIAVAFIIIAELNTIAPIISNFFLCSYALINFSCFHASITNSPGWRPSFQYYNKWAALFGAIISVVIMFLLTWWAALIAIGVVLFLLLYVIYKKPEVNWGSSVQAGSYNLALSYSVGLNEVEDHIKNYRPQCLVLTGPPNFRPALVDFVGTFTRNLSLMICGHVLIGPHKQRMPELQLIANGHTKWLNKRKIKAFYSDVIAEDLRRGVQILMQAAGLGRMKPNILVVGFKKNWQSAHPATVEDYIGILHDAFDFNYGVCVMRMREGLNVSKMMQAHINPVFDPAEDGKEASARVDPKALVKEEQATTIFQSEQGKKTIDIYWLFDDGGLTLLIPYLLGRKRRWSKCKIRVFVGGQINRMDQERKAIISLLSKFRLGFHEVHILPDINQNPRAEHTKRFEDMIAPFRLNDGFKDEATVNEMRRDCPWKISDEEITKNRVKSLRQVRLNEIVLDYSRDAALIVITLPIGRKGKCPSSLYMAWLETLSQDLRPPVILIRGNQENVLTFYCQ
Description: 125I- uptake assay, hNCC(C472F) variant. It counts as cell-based. Here is the method: (§1) HEK293S cell lines, cultured in 293 Freestyle medium (Life Technologies; plus 10% fetal bovine serum), stably expressing hNCC and its variants were generated following published protocols. Cells were transfected using Lipofectamine 3000 (Invitrogen) with a pSBbi-RP-based plasmid containing hNCC or its variants and the SB100X vector. Puromycin (2 μg/mL; Gemini Bio-Products) was used for selection of stable cell lines.
(§2) To prepare for the uptake experiment, cells were plated at 0.5 × 10^6 cells/well in 24-well plates one day in advance. To activate NCC, cells were treated with a chloride-free hypotonic solution composed of 67.5 mM sodium-, 2.5 mM potassium-, 0.25 mM magnesium-, and 0.25 mM calcium-gluconate, as well as 7.5 mM HEPES pH 7.4 (buffered using Tris) at 37 °C for 10 min[72]. After the activation step, the experiments were carried out at room temperature. Ten minutes before the start of ^125I^− uptake, 70 μM Bumetanide (Thermo Scientific Chemicals) and 100 μM 4,4′-diisothiocyanatostilbene-2,2′-disulfonic acid (DIDS; Sigma) were added to suppress background iodide uptake activity. Indicated thiazide diuretics were also added to the indicated concentrations 10 min before the start of ^125I^− uptake. The original buffer was switched to an uptake buffer composed of 135 mM Na-gluconate, 5 mM K-gluconate, 1 mM Mg-gluconate, 1 mM Ca-gluconate, 70 μM bumetanide, 100 μM DIDS, 1 mM NaI, 0.25 μCi/ml Na^125I (American Radiolabeled Chemicals, Inc.), and 15 mM HEPES pH 7.4 (buffered using Tris), in the presence or absence of thiazide diuretics to initiate ^125I^− uptake. The ^125I^− uptake process lasted 1 h and was stopped by two rapid washes using ice-cold 110 mM MgCl2. Cells lysed using 1% sodium dodecyl sulfate (SDS) were analyzed by scintillation counting.

The target of assay [2] is T2, hNCC(T352I) (Homo sapiens, UniProt P55017, T352I).
T2 construct: expressed in transfected cells
T2 sequence (P55017 1-1021 T352I): T1 sequence (P55017 1-1021 C472F) with T352I, F472C
Put plainly: 125I- uptake assay, hNCC(T352I) variant. It counts as cell-based. Particulars: 100 μM polythiazide. Here is the method:
as §1
as §2, with “The original buffer was switched to an uptake buffer composed of 135 mM Na-gluconate, 5 mM K-gluconate, 1 mM Mg-gluconate, 1 mM Ca-gluconate, 70 μM bumetanide, 100 μM DIDS, 1 mM NaI, 0.25 μCi/ml Na^125I (American Radiolabeled Chemicals, Inc.), and 15 mM HEPES pH 7.4 (buffered using Tris), in the presence or absence of thiazide diuretics to initiate ^125I^− uptake. The ^125I^− uptake process lasted 1 h and was stopped by two rapid washes using ice-cold 110 mM MgCl2.” left out

For orientation: inhibition means the share of the control response that was lost under treatment. By IC50 is commonly meant the midpoint of a concentration-inhibition curve.

Residue numbers refer to the chain shown, from its start. Entries after “also recorded” stand apart in the source; their conditions may differ.

`CN1C(CSCC(F)(F)F)Nc2cc(Cl)c(S(N)(=O)=O)cc2S1(=O)=O` (stereo not shown) [polythiazide]: the inhibition at 100 µM in assay [1] (100 μM polythiazide, C472F, read-out: inhibition of transport activity) is about 50%. The “decrease in potency relative to hNCC(WT)” value in assay [1] (C472F substitution) is recorded as “approximately 200,000 fold”. In addition, the concentration for half-maximal inhibition (IC50) in assay [1] (C472F substitution, estimated from ~50% inhibition at 100 μM) is about 100 µM. Further, the “inhibition of transport activity” value in assay [2] is on record as “fully inhibited; also recorded: completely inhibited”.

The values above are taken from publication PMC12365235, “Molecular mechanisms of thiazide-like diuretics-mediated inhibition of the human Na-Cl cotransporter” (Nature Communications, 2025).
